Test results published in US20210284638A1 (Saint Louis University, priority 2018, published 2021).
Structures can show the parent of a compound that is named as a salt.

Key:
Format in all cases: binding
[1] = molecular target: T1, Recombinant human integrin αVβ5 (Homo sapiens, UniProt P06756+P18084); test: Solid Phase Receptor Assay (SPRA) for αVβ5 function; settings: plate-bound human vitronectin
T1 construct: purchased R&D Systems 2528-AV

[2] = molecular target: T2, Recombinant human integrin αVβ3 (Homo sapiens, UniProt P05106+P06756); test: Solid Phase Receptor Assay for αVβ3 function; settings: plate-bound human vitronectin; read-out: αVβ3 SPRA IC50
T2 construct: purchased R&D Systems 3050-AV

[3] = molecular target: T3, Recombinant human integrin α5β1 (Homo sapiens, UniProt P05556+P08648); test: Solid Phase Receptor Assay (SPRA) for α5β1 function; settings: plate-bound human fibronectin
T3 construct: purchased R&D Systems 3230-A5

[4] = molecular target: T4, Recombinant human integrin αVβ8 (Homo sapiens, UniProt P06756+P26012); test: Solid Phase Receptor Assay for αVβ8 function; settings: plate-bound human LAP; read-out: αVβ8 SPRA IC50
T4 construct: purchased R&D Systems 4135-AV
T4 sequence (P06756 31-992 limits assumed): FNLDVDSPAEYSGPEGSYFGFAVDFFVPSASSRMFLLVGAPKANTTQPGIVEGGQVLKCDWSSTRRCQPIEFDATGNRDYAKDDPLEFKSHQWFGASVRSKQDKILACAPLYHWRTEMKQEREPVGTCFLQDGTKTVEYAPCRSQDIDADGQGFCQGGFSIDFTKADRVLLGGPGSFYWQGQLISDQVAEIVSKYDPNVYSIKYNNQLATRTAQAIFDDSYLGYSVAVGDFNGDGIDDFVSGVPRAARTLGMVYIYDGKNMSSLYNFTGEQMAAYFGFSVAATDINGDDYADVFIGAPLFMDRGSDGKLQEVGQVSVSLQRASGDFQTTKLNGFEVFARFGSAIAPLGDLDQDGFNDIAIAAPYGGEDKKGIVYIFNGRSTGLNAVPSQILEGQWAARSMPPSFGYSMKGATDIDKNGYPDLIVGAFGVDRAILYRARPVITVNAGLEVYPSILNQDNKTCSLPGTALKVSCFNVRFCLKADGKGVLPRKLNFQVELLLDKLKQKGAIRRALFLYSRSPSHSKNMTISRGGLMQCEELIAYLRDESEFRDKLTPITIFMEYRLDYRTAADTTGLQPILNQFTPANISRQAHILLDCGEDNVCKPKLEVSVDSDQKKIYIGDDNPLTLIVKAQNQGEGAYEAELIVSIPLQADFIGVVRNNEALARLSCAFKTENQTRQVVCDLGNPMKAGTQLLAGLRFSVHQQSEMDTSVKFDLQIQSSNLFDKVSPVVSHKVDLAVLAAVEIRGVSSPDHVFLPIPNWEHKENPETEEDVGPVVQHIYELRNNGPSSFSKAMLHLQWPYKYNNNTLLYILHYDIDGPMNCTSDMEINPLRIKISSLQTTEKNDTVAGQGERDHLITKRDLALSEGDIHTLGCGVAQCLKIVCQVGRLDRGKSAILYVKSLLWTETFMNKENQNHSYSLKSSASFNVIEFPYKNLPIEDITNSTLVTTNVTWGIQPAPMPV
T4 sequence (P26012 43-684 limits assumed): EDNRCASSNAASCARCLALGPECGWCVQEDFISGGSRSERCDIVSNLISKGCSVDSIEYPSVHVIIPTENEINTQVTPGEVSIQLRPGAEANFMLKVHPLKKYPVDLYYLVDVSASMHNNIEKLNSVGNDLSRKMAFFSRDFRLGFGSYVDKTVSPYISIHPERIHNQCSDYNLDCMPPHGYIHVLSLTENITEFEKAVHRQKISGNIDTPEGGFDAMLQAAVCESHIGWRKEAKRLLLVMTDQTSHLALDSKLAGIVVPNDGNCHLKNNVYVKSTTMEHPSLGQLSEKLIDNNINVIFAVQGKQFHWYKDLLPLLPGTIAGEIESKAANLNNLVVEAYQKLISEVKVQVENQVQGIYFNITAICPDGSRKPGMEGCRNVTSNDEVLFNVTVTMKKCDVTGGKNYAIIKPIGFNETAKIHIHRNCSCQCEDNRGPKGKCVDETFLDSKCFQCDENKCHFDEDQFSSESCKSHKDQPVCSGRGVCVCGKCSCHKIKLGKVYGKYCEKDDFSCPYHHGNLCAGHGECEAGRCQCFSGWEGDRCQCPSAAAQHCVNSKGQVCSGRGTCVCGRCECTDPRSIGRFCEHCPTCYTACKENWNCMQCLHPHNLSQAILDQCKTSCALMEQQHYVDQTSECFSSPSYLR

T3 sequence (P08648 42-995 limits assumed): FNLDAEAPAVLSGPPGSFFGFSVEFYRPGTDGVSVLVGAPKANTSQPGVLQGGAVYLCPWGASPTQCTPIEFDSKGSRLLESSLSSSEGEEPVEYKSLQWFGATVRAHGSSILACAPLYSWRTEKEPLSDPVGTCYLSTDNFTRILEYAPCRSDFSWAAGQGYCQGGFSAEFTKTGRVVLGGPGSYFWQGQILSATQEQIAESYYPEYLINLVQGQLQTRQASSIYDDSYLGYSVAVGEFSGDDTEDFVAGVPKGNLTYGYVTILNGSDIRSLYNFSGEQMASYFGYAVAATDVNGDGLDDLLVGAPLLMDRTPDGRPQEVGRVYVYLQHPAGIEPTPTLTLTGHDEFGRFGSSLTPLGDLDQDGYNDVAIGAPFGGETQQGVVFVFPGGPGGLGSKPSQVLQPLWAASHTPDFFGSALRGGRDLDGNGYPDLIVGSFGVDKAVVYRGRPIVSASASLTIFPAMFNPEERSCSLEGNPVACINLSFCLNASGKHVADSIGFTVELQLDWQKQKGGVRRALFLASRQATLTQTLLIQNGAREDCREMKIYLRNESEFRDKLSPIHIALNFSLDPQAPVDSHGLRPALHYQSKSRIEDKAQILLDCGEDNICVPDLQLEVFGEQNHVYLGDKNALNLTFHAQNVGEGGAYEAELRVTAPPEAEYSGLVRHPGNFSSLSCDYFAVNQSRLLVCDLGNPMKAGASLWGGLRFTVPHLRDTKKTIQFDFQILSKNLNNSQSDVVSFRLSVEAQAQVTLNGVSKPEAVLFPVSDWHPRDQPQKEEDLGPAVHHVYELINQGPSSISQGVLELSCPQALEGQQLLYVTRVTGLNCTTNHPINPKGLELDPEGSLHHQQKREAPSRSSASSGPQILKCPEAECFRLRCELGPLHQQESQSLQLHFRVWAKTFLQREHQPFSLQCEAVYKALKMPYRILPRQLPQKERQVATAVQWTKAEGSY
T3 sequence (P05556 21-728 limits assumed): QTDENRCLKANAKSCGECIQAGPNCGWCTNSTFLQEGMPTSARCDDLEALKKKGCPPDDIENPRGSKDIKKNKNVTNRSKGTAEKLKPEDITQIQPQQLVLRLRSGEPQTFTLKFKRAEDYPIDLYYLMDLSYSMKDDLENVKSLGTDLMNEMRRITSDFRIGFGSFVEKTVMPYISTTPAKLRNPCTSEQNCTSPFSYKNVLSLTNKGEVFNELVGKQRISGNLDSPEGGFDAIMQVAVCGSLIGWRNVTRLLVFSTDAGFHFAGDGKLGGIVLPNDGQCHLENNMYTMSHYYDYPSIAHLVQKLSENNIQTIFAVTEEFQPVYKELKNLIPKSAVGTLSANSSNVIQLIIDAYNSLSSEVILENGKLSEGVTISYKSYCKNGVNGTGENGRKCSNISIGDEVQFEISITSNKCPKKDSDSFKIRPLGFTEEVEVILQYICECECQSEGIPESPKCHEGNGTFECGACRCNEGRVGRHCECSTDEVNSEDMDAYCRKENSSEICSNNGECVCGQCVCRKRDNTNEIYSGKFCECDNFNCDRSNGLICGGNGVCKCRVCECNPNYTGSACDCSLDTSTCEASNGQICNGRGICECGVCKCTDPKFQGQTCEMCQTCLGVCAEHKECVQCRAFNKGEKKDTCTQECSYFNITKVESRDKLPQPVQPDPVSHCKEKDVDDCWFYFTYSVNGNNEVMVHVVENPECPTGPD
T2 sequence (P06756 31-992 limits assumed): as the sequence (P06756 31-992 limits assumed) above
T2 sequence (P05106 27-718 limits assumed): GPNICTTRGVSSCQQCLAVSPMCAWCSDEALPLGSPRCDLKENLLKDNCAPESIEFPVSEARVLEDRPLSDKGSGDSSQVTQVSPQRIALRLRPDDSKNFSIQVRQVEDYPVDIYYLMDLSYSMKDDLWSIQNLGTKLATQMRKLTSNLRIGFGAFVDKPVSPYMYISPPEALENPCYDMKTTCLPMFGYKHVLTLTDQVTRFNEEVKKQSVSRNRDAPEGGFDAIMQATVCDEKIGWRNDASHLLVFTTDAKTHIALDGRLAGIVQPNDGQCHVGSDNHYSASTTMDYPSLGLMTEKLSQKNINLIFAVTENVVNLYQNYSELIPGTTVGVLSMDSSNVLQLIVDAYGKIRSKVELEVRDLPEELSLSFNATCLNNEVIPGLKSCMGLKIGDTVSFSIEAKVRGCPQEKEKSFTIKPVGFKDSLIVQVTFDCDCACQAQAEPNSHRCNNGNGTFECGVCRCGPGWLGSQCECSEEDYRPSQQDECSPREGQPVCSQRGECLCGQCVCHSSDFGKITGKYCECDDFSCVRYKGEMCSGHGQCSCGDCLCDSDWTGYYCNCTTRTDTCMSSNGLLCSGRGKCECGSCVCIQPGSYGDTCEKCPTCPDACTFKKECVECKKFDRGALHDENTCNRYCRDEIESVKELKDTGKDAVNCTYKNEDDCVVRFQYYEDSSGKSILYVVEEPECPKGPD
T1 sequence (P06756 31-992 limits assumed): as the sequence (P06756 31-992 limits assumed) above
T1 sequence (P18084 24-719 limits assumed): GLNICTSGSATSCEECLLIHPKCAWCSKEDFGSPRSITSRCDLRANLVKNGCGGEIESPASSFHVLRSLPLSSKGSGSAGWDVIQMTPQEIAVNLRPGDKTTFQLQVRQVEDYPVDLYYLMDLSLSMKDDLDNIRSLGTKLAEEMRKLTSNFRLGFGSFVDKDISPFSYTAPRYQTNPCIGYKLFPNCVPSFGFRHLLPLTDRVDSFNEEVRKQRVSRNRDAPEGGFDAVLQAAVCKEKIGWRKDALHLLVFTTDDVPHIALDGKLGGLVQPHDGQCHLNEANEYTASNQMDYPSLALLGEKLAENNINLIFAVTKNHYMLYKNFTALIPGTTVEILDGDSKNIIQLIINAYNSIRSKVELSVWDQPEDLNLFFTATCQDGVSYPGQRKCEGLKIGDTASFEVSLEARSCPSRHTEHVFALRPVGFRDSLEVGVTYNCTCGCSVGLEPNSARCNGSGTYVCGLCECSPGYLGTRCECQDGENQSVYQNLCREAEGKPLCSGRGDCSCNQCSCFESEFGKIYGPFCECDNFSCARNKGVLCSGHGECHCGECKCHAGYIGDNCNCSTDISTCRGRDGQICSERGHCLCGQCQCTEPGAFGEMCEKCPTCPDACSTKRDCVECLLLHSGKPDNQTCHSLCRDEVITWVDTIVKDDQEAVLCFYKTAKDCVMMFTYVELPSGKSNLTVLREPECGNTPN

SMILES | IC50 [1] | IC50 [2] | IC50 [3] | IC50 [4]
CC(C)(C)c1cc(C(CC(=O)O)Cc2csc(CCCc3ccc4c(n3)NCCC4)n2)cc(C(C)(C)C(F)(F)F)c1 (stereo not shown) [Example 31, 3-[3-tert-butyl-5-(2,2,2-trifluoro-1,1-dimethyl-ethyl)phenyl]-4-[2-[3-(5,6,7,8-tetrahydro-1,8-naphthyridin-2-yl)propyl]thiazol-4-yl]butanoic acid] | 1500 nM | 2600 nM | 66 nM | 76 nM
COc1c(Br)cc(C(C)(C)C)cc1C(CC(=O)O)Cc1cc(OCCc2ccc3c(n2)NCCC3)n(C)n1 (stereo not shown) [Example 12, 3-(3-bromo-5-(tert-butyl)-2-methoxyphenyl)-4-(1-methyl-5-(2-(5,6,7,8-tetrahydro-1,8-naphthyridin-2-yl)ethoxy)-1H-pyrazol-3-yl)butanoic acid] | 160 nM | 90 nM | 180 nM | 17 nM
COc1ccc(C2(C(F)F)CC2)cc1C(CC(=O)O)Cc1cc(OCCc2ccc3c(n2)NCCC3)n(C)n1 (stereo not shown) [Example 21, 3-[5-[1-(difluoromethyl)cyclopropyl]-2-methoxy-phenyl]-4-[1-methyl-5-[2-(5,6,7,8-tetrahydro-1,8-naphthyridin-2-yl)ethoxy]pyrazol-3-yl]butanoic acid] | 290 nM | 340 nM | 29 nM | 140 nM
Cn1nc(CC(CC(=O)O)c2cc(C(C)(C)C)ccc2C#N)cc1OCCc1ccc2c(n1)NCCC2 (stereo not shown) [Example 18, 3-(5-(tert-butyl)-2-cyanophenyl)-4-(1-methyl-5-(2-(5,6,7,8-tetrahydro-1,8-naphthyridin-2-yl)ethoxy)-1H-pyrazol-3-yl)butanoic acid] | 4 nM | 56 nM | 4 nM | 3 nM
COc1ccc(C2CCOCC2)cc1C(CC(=O)O)Cc1csc(CCCc2ccc3c(n2)NCCC3)n1 (stereo not shown) [Example 43, 3-(2-methoxy-5-(tetrahydro-2H-pyran-4-yl)phenyl)-4-(2-(3-(5,6,7,8-tetrahydro-1,8-naphthyridin-2-yl)propyl)thiazol-4-yl)butanoic acid] | 61 nM | 520 nM | 65 nM | 210 nM
COc1ccc(C2(C(F)F)CC2)cc1C(CC(=O)O)Cc1csc(CCCc2ccc3c(n2)NCCC3)n1 (stereo not shown) [Example 36, 3-(5-(1-(difluoromethyl)cyclopropyl)-2-methoxyphenyl)-4-(2-(3-(5,6,7,8-tetrahydro-1,8-naphthyridin-2-yl)propyl)thiazol-4-yl)butanoic acid] | 150 nM | 840 nM | 7 nM | 29 nM
Cn1nc(CC(CC(=O)O)c2cc(C(C)(C)C)cc(C(C)(C)CO)c2)cc1OCCc1ccc2c(n1)NCCC2 (stereo not shown) [Example 7, 3-[3-tert-butyl-5-(2-hydroxy-1,1-dimethyl-ethyl)phenyl]-4-[1-methyl-5-[2-(5,6,7,8-tetrahydro-1,8-naphthyridin-2-yl)ethoxy]pyrazol-3-yl]butanoic acid] | 27 nM | 17 nM | 1 nM | 18 nM
Cn1nc(CC(CC(=O)O)c2cc(C(C)(C)C)ccc2F)cc1OCCc1ccc2c(n1)NCCC2 (stereo not shown) [Example 19, 3-(5-(tert-butyl)-2-fluorophenyl)-4-(1-methyl-5-(2-(5,6,7,8-tetrahydro-1,8-naphthyridin-2-yl)ethoxy)-1H-pyrazol-3-yl)butanoic acid] | 0.6 nM | 6 nM | 10 nM | 58 nM
CC(C)(C)c1cc(C(CC(=O)O)Cc2cc(OCCc3ccc4c(n3)NCCC4)n(CC(F)(F)F)n2)cc(C(C)(C)C)c1 (stereo not shown) [Example 40, 3-(3,5-di-tert-butylphenyl)-4-(5-(2-(5,6,7,8-tetrahydro-1,8-naphthyridin-2-yl)ethoxy)-1-(2,2,2-trifluoroethyl)-1H-pyrazol-3-yl)butanoic acid trifluoroacetate] | 180 nM | 740 nM | 6 nM | 30 nM
Cn1nc(CC(CC(=O)O)c2cc(C(C)(C)C)cc(C3(C(F)F)CC3)c2)cc1OCCc1ccc2c(n1)NCCC2 (stereo not shown) [Example 6, 3-(3-(tert-butyl)-5-(1-(difluoromethyl)cyclopropyl)phenyl)-4-(1-methyl-5-(2-(5,6,7,8-tetrahydro-1,8-naphthyridin-2-yl)ethoxy)-1H-pyrazol-3-yl)butanoic acid] | 54 nM | 120 nM | 6 nM | 15 nM
